Experimental data: US6737383B1, “Herbicidal oxadiazolidines” (priority 1999, dated 2004)

Legend:
cocklebur = assay: Test B pre/postemergence cocklebur; assay type: in vivo, Xanthium strumarium
Outline: (§1)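 Test chemicals in a non-phytotoxic solvent mixture with surfactant were sprayed preemergence onto planted seeds and postemergence onto plants 2 to 18 cm tall (1- to 4-leaf stage). After twelve to sixteen days in a greenhouse, injury was visually rated against untreated controls from 0 (no effect) to 10 (complete control).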

bamyardgrass = assay: Test B flood test barnyardgrass; assay type: in vivo, Echinochloa crus-galli
Outline: (§2)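 Flood test on plants grown to the 2-leaf stage; treated plants kept in greenhouse twelve to sixteen days, then visually rated against controls on a 0 (no effect) to 10 (complete control) scale.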

giant foxtail = assay: Test B pre/postemergence giant foxtail; assay type: in vivo, Setaria faberii
Outline: as §1

sugar beet = assay: Test B pre/postemergence sugar beet; assay type: in vivo, Beta vulgaris
Outline: as §1

purple nutsedge = assay: Test B pre/postemergence purple nutsedge; assay type: in vivo, Cyperus rotundus
Outline: as §1

surinam grass = assay: Test B pre/postemergence surinam grass; assay type: in vivo, Brachiaria decumbens
Outline: as §1

wheat = assay: Test B pre/postemergence wheat; assay type: in vivo, Triticum aestivum
Outline: as §1

rape = assay: Test B pre/postemergence rape; assay type: in vivo, Brassica napus
Outline: as §1

bedstraw = assay: Test B pre/postemergence bedstraw; assay type: in vivo, Galium aparine
Outline: as §1

pigweed = assay: Test B pre/postemergence pigweed; assay type: in vivo, Amaranthus retroflexus
Outline: as §1

blackgrass = assay: Test B pre/postemergence blackgrass; assay type: in vivo, Alopecurus myosuroides
Outline: as §1

crabgrass = assay: Test B pre/postemergence crabgrass; assay type: in vivo, Digitaria sanguinalis
Outline: as §1

rice = assay: Test B flood test rice; assay type: in vivo, Oryza sativa
Outline: as §2

morningglory = assay: Test B pre/postemergence morningglory; assay type: in vivo, Ipomoea hederacea
Outline: as §1

wild oat = assay: Test B pre/postemergence wild oat; assay type: in vivo, Avena fatua
Outline: as §1

corn = assay: Test B pre/postemergence corn; assay type: in vivo, Zea mays
Outline: as §1

[1] = Postemergence, Rate 62 g/ha, scale 0 to 10, 0 is no effect, 10 is complete control
[2] = Postemergence, Rate 250 g/ha, scale 0 to 10, 0 no effect, 10 complete control
[3] = Preemergence, Rate 62 g/ha, scale 0 to 10 (0 no effect, 10 complete control)
[4] = Preemergence, Rate 125 g/ha, scale 0 to 10 (0 no effect, 10 complete control)
[5] = Preemergence, Rate 250 g/ha, scale of 0 to 10 where 0 is no effect and 10 is complete control
[6] = Preemergence, Rate 500 g/ha, scale 0 (no effect) to 10 (complete control)
[7] = Rate 125 g/ha, Postemergence, scale 0 to 10, 0 no effect, 10 complete control
[8] = Rate 500 g/ha, Postemergence, scale 0 to 10, 0 no effect, 10 complete control
[9] = Rate 62 g/ha, headed Pre-emergence (flood test species), scale 0 to 10 (0 no effect, 10 complete control)
[10] = Rate 125 g/ha, Pre-emergence, flood test species, scale 0 to 10 where 0 is no effect and 10 is complete control
[11] = Rate 250 g/ha, headed Pre-emergence (flood test species), scale 0 to 10 (0 no effect, 10 complete control)
[12] = Rate 500 g/ha, headed Pre-emergence (flood test species), scale 0 to 10 (0 no effect, 10 complete control)

Cc1cccc(C)c1-n1c(=O)on(C(=O)N(Cc2ccccc2)C(C)C)c1=O [Compound 69]
Cocklebur plant response rating (cocklebur; [1]): 0 | Cocklebur plant response rating (cocklebur; [2]): 0 | Cocklebur plant response rating (cocklebur; [3]): 0 | Plant response rating, Cocklebur (cocklebur; [4]): 0 | Plant response rating, Cocklebur (cocklebur; [5]): 0 | Cocklebur plant response rating (cocklebur; [6]): 0 | Cocklebur plant response rating (cocklebur; [7]): 0 | Cocklebur plant response rating (cocklebur; [8]): 0 | Barnyardgrass plant response rating (bamyardgrass; [9]): 0 | Barnyardgrass plant response rating (bamyardgrass; [10]): 0 | Barnyardgrass plant response rating (bamyardgrass; [11]): 0 | Plant response rating, Barnyardgrass (bamyardgrass; [12]): 0 | Giant foxtail plant response rating (giant foxtail; [1]): 0 | Giant foxtail plant response rating (giant foxtail; [2]): 0 | Giant foxtail plant response rating (giant foxtail; [3]): 0 | Plant response rating, Giant foxtail (giant foxtail; [4]): 0 | Plant response rating, Giant foxtail (giant foxtail; [5]): 4 | Giant foxtail plant response rating (giant foxtail; [6]): 4 | Giant foxtail plant response rating (giant foxtail; [7]): 0 | Giant foxtail plant response rating (giant foxtail; [8]): 1 | Sugarbeets plant response rating (sugar beet; [1]): 0 | Sugarbeets plant response rating (sugar beet; [2]): 0 | Sugarbeets plant response rating (sugar beet; [3]): 0 | Plant response rating, Sugarbeets (sugar beet; [4]): 0 | Plant response rating, Sugarbeets (sugar beet; [5]): 0 | Sugarbeets plant response rating (sugar beet; [6]): 0 | Sugarbeets plant response rating (sugar beet; [7]): 0 | Sugarbeets plant response rating (sugar beet; [8]): 0 | Nutsedge plant response rating (purple nutsedge; [1]): 0 | Nutsedge plant response rating (purple nutsedge; [2]): 0 | Nutsedge plant response rating (purple nutsedge; [3]): 0 | Plant response rating, Nutsedge (purple nutsedge; [4]): 0 | Plant response rating, Nutsedge (purple nutsedge; [5]): 0 | Nutsedge plant response rating (purple nutsedge; [6]): 0 | Nutsedge plant response rating (purple nutsedge; [7]): 0 | Nutsedge plant response rating (purple nutsedge; [8]): 0 | B. signalgrass plant response rating (surinam grass; [1]): 0 | B. signalgrass plant response rating (surinam grass; [2]): 0 | B. signalgrass plant response rating (surinam grass; [3]): 0 | Plant response rating, B. signalgrass (surinam grass; [4]): 0 | Plant response rating, B. signalgrass (surinam grass; [5]): 0 | B. signalgrass plant response rating (surinam grass; [6]): 0 | B. signalgrass plant response rating (surinam grass; [7]): 0 | Wheat plant response rating (wheat; [1]): 0 | Wheat plant response rating (wheat; [2]): 0 | Wheat plant response rating (wheat; [3]): 0 | Plant response rating, Wheat (wheat; [4]): 0 | Plant response rating, Wheat (wheat; [5]): 0 | Wheat plant response rating (wheat; [6]): 0 | Wheat plant response rating (wheat; [7]): 0 | Wheat plant response rating (wheat; [8]): 0 | Rape plant response rating (rape; [1]): 0 | Rape plant response rating (rape; [2]): 0 | Rape plant response rating (rape; [3]): 0 | Plant response rating, Rape (rape; [4]): 0 | Plant response rating, Rape (rape; [5]): 0 | Rape plant response rating (rape; [6]): 0 | Rape plant response rating (rape; [7]): 0 | Rape plant response rating (rape; [8]): 0 | Bedstraw plant response rating (bedstraw; [1]): 0 | Bedstraw plant response rating (bedstraw; [2]): 5 | Bedstraw plant response rating (bedstraw; [3]): 0 | Plant response rating, Bedstraw (bedstraw; [4]): 0 | Plant response rating, Bedstraw (bedstraw; [5]): 0 | Bedstraw plant response rating (bedstraw; [6]): 0 | Bedstraw plant response rating (bedstraw; [7]): 4 | Bedstraw plant response rating (bedstraw; [8]): 6 | Redroot pigweed plant response rating (pigweed; [1]): 0 | Redroot pigweed plant response rating (pigweed; [2]): 0 | Redroot pigweed plant response rating (pigweed; [3]): 0 | Plant response rating, Redroot pigweed (pigweed; [4]): 0 | Plant response rating, Redroot pigweed (pigweed; [5]): 0 | Redroot pigweed plant response rating (pigweed; [6]): 0 | Redroot pigweed plant response rating (pigweed; [7]): 0 | Redroot pigweed plant response rating (pigweed; [8]): 0 | Blackgrass plant response rating (blackgrass; [1]): 0 | Blackgrass plant response rating (blackgrass; [2]): 0 | Blackgrass plant response rating (blackgrass; [3]): 0 | Plant response rating, Blackgrass (blackgrass; [4]): 0 | Plant response rating, Blackgrass (blackgrass; [5]): 0 | Blackgrass plant response rating (blackgrass; [6]): 0 | Blackgrass plant response rating (blackgrass; [7]): 0 | Blackgrass plant response rating (blackgrass; [8]): 0 | Crabgrass plant response rating (crabgrass; [1]): 0 | Crabgrass plant response rating (crabgrass; [2]): 1 | Crabgrass plant response rating (crabgrass; [3]): 0 | Plant response rating, Crabgrass (crabgrass; [4]): 0 | Plant response rating, Crabgrass (crabgrass; [5]): 2 | Crabgrass plant response rating (crabgrass; [6]): 4 | Crabgrass plant response rating (crabgrass; [7]): 0 | Crabgrass plant response rating (crabgrass; [8]): 1 | Rice plant response rating (rice; [9]): 0 | Rice plant response rating (rice; [10]): 0 | Rice plant response rating (rice; [11]): 0 | Plant response rating, Rice (rice; [12]): 0 | Morningglory plant response rating (morningglory; [1]): 0 | Morningglory plant response rating (morningglory; [2]): 0 | Morningglory plant response rating (morningglory; [3]): 0 | Plant response rating, Morningglory (morningglory; [4]): 0 | Plant response rating, Morningglory (morningglory; [5]): 0 | Morningglory plant response rating (morningglory; [6]): 0 | Morningglory plant response rating (morningglory; [7]): 0 | Morningglory plant response rating (morningglory; [8]): 0 | Wild oats plant response rating (wild oat; [1]): 0 | Wild oats plant response rating (wild oat; [2]): 0 | Wild oats plant response rating (wild oat; [3]): 0 | Plant response rating, Wild oats (wild oat; [4]): 0 | Plant response rating, Wild oats (wild oat; [5]): 0 | Wild oats plant response rating (wild oat; [6]): 0 | Wild oats plant response rating (wild oat; [7]): 0 | Wild oats plant response rating (wild oat; [8]): 0 | Corn plant response rating (corn; [1]): 0 | Corn plant response rating (corn; [2]): 0 | Corn plant response rating (corn; [3]): 0 | Plant response rating, Corn (corn; [4]): 0 | Plant response rating, Corn (corn; [5]): 0 | Corn plant response rating (corn; [6]): 0 | Corn plant response rating (corn; [7]): 0 | Corn plant response rating (corn; [8]): 0
